This is an account of results in BindingDB's records for doi:10.1111/j.1747-0285.2009.00881.x (University of Notre Dame, 2009).

For orientation: Ki means the equilibrium dissociation constant of an inhibitor or competing ligand from its target.

72 kDa type IV collagenase, sequence (P08253 whole entry): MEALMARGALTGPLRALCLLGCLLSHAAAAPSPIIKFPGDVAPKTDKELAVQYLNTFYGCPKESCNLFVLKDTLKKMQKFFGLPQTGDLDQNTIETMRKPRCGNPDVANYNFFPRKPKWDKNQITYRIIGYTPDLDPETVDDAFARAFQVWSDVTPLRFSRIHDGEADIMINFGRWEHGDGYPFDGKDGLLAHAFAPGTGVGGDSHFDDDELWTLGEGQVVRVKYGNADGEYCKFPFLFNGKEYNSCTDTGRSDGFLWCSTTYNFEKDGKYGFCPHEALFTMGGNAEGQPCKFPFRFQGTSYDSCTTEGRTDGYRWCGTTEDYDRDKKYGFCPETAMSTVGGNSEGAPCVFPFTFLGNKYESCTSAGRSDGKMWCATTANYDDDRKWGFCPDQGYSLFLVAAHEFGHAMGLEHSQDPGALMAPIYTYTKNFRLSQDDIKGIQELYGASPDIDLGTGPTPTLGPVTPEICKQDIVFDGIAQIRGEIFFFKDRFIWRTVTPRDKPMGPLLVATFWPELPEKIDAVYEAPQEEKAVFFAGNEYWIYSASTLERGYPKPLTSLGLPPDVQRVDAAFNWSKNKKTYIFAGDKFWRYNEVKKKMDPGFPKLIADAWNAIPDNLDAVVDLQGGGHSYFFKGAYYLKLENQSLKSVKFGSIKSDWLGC

The experiment addresses 72 kDa type IV collagenase (Homo sapiens, UniProt P08253). In words: Inhibition Assay. An excerpt: Inhibition assay using matrix metalloproteinase (MMP-2).
Molecule `[O-][S+](CC1CS1)c1ccc(Oc2ccccc2)cc1` (centres undefined) [Sulfoxide, 4] showed a Ki of 2.1 µM.
On to `CC(C)(C1CS1)S(=O)(=O)c1ccc(Oc2ccccc2)cc1` (stereo not drawn) [Alpha, alpha-dimethyl derivative, 5], for which the Ki is more than 40 µM.
For `CC1(C)SC1CS(=O)(=O)c1ccc(Oc2ccccc2)cc1` (centres undefined) [Gama, gama-dimethyl derivative, 6], the Ki came to 1.4 µM.
`O=S(=O)(/C=C/CS)c1ccc(Oc2ccccc2)cc1` [Vinylsulfone, 7] registered a Ki of 0.00053 µM.
